# PubChem BioAssay (NCI)
#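 Results reflect a 48-hour exposure of cells in 96-well plates to compound at five concentrations. TGI is the concentration that stops growth completely.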
# Assays:
# Test in all cases: NCI tumour cell line growth inhibition, 48 h
# [1] = system: EKVX NSCLC
# [2] = system: RXF-631 renal
# [3] = system: OVCAR-5 ovarian
# [4] = system: HOP-92 NSCLC
# [5] = system: DLD-1 colon
# [6] = system: HT29 colon
# [7] = system: M19-MEL melanoma
# [8] = system: HOP-18 NSCLC
# [9] = system: SK-MEL-28 melanoma
# [10] = system: A498 renal
# [11] = system: A549 NSCLC
# [12] = system: HCT-15 colon
# [13] = system: HCT-116 colon
# [14] = system: HOP-62 NSCLC
# [15] = system: SF-295 CNS
# [16] = system: SW-620 colon
# [17] = system: UO-31 renal
# [18] = system: OVCAR-8 ovarian
# [19] = system: M14 melanoma
# [20] = system: NCI-H23 lung
# [21] = system: SNB-78 CNS
# [22] = system: U251 CNS
# [23] = system: COLO 205 colon
# [24] = system: NCI-H226 lung
# [25] = system: SF-268 CNS
# [26] = system: SK-OV-3 ovarian
# [27] = system: 786-0 renal
# [28] = system: K-562 leukemia
# [29] = system: DMS 273 small cell lung
# [30] = system: RPMI-8226 leukemia
# [31] = system: OVCAR-4 ovarian
# [32] = system: SK-MEL-2 melanoma
# [33] = system: SN12C renal
# [34] = system: SNB-75 CNS
# [35] = system: CAKI-1 renal
# [36] = system: KM12 colon
# [37] = system: IGROV1 ovarian
# [38] = system: HCC-2998 colon
# [39] = system: UACC-257 melanoma
# [40] = system: SK-MEL-5 melanoma
# [41] = system: NCI-H460 lung
# [42] = system: DMS 114 small cell lung
# [43] = system: OVCAR-3 ovarian
# [44] = system: LOX IMVI melanoma
# [45] = system: ACHN renal
# [46] = system: RXF 393 renal
# [47] = system: SF-539 CNS
# [48] = system: TK-10 renal
# [49] = system: UACC-62 melanoma
# [50] = system: SNB-19 CNS
# [51] = system: MALME-3M melanoma
# [52] = system: SR leukemia
# [53] = system: XF 498 CNS
# [54] = system: KM20L2 colon
# [55] = system: MOLT-4 leukemia
# [56] = system: NCI-H522 lung
# [57] = system: CCRF-CEM leukemia
# [58] = system: HL-60(TB) leukemia
# [59] = system: LXFL 529 NSCLC
smiles,measurement,setting,value
Cc1cccc(-c2nc3c(C(=O)NCCN(C)C)cccc3[nH]2)c1,TGI,[1],3.5 µM
same,TGI,[2],2.16 µM
same,TGI,[3],4.14 µM
same,TGI,[4],3.46 µM
same,TGI,[5],7.95 µM
same,TGI,[6],3.48 µM
same,TGI,[7],3.03 µM
same,TGI,[8],4.85 µM
same,TGI,[9],3.46 µM
same,TGI,[10],3.34 µM
same,TGI,[11],7.7 µM
same,TGI,[12],2.2 µM
same,TGI,[13],1.55 µM
same,TGI,[14],3.46 µM
same,TGI,[15],3.9 µM
same,TGI,[16],1.91 µM
same,TGI,[17],5.05 µM
same,TGI,[18],7.02 µM
same,TGI,[19],2.98 µM
same,TGI,[20],2.26 µM
same,TGI,[21],14.6 µM
same,TGI,[22],5.77 µM
same,TGI,[23],1.56 µM
same,TGI,[24],3.89 µM
same,TGI,[25],5.28 µM
same,TGI,[26],6.07 µM
same,TGI,[27],7.88 µM
same,TGI,[28],> 100 µM
same,TGI,[29],1.59 µM
same,TGI,[30],9.49 µM
same,TGI,[31],3.64 µM
same,TGI,[32],3.26 µM
same,TGI,[33],3.2 µM
same,TGI,[34],3.73 µM
same,TGI,[35],10.3 µM
same,TGI,[36],4 µM
same,TGI,[37],4.06 µM
same,TGI,[38],1.95 µM
same,TGI,[39],3.08 µM
same,TGI,[40],3 µM
same,TGI,[41],5.99 µM
same,TGI,[42],2.51 µM
same,TGI,[43],6.55 µM
same,TGI,[44],2 µM
same,TGI,[45],8.46 µM
same,TGI,[46],2.47 µM
same,TGI,[47],2.04 µM
same,TGI,[48],4.95 µM
same,TGI,[49],3.2 µM
same,TGI,[50],7.68 µM
CCOC(=O)CC(=O)Sc1ccccc1,TGI,[1],74 µM
same,TGI,[51],> 100 µM
same,TGI,[3],> 100 µM
same,TGI,[4],89.5 µM
same,TGI,[5],53.6 µM
same,TGI,[6],48.7 µM
same,TGI,[7],48.4 µM
same,TGI,[52],58.1 µM
same,TGI,[8],> 100 µM
same,TGI,[9],35 µM
same,TGI,[10],57.4 µM
same,TGI,[11],60.6 µM
same,TGI,[13],26.8 µM
same,TGI,[14],65.6 µM
same,TGI,[53],93.4 µM
same,TGI,[15],86.5 µM
same,TGI,[16],39.4 µM
same,TGI,[54],47.5 µM
same,TGI,[17],28.4 µM
same,TGI,[55],72.6 µM
same,TGI,[18],34.6 µM
same,TGI,[56],24.3 µM
same,TGI,[19],31.7 µM
same,TGI,[20],70.7 µM
same,TGI,[22],40.2 µM
same,TGI,[23],52.9 µM
same,TGI,[24],58.4 µM
same,TGI,[25],23.1 µM
same,TGI,[26],49.3 µM
same,TGI,[27],37 µM
same,TGI,[28],58.7 µM
same,TGI,[29],46 µM
same,TGI,[30],51 µM
same,TGI,[31],> 100 µM
same,TGI,[32],67.9 µM
same,TGI,[33],24.6 µM
same,TGI,[36],> 100 µM
same,TGI,[37],26 µM
same,TGI,[38],96 µM
same,TGI,[57],51.3 µM
same,TGI,[58],48.6 µM
same,TGI,[39],91.4 µM
same,TGI,[40],58.5 µM
same,TGI,[41],73.8 µM
same,TGI,[42],32 µM
same,TGI,[43],42.7 µM
same,TGI,[44],26.8 µM
same,TGI,[45],65.7 µM
same,TGI,[46],25.9 µM
same,TGI,[47],28.6 µM
same,TGI,[48],> 100 µM
same,TGI,[49],30.7 µM
same,TGI,[50],> 100 µM
O=C1NC(=S)NC(=O)C1=Cc1cc2c(cc1[N+](=O)[O-])OCO2,TGI,[1],> 100 µM
same,TGI,[51],> 100 µM
same,TGI,[2],> 100 µM
same,TGI,[5],> 100 µM
same,TGI,[7],> 100 µM
same,TGI,[52],> 100 µM
same,TGI,[8],> 100 µM
same,TGI,[9],> 100 µM
same,TGI,[10],> 100 µM
same,TGI,[11],> 100 µM
same,TGI,[12],> 100 µM
same,TGI,[13],> 100 µM
same,TGI,[14],> 100 µM
same,TGI,[16],> 100 µM
same,TGI,[54],> 100 µM
same,TGI,[17],> 100 µM
same,TGI,[55],> 100 µM
same,TGI,[18],> 100 µM
same,TGI,[56],> 100 µM
same,TGI,[19],> 100 µM
same,TGI,[21],> 100 µM
same,TGI,[22],> 100 µM
same,TGI,[23],> 100 µM
same,TGI,[24],> 100 µM
same,TGI,[25],> 100 µM
same,TGI,[26],> 100 µM
same,TGI,[27],> 100 µM
same,TGI,[28],> 100 µM
same,TGI,[29],> 100 µM
same,TGI,[30],> 100 µM
same,TGI,[31],> 100 µM
same,TGI,[32],> 100 µM
same,TGI,[33],> 100 µM
same,TGI,[34],> 100 µM
same,TGI,[35],> 100 µM
same,TGI,[36],> 100 µM
same,TGI,[37],> 100 µM
same,TGI,[38],> 100 µM
same,TGI,[57],> 100 µM
same,TGI,[58],> 100 µM
same,TGI,[39],> 100 µM
same,TGI,[40],> 100 µM
same,TGI,[41],> 100 µM
same,TGI,[42],87.3 µM
same,TGI,[43],> 100 µM
same,TGI,[45],> 100 µM
same,TGI,[46],> 100 µM
same,TGI,[47],> 100 µM
same,TGI,[48],> 100 µM
same,TGI,[49],> 100 µM
same,TGI,[50],> 100 µM
CC(C)C(=O)/C=C/c1ccccc1,TGI,[3],> 100 µM
same,TGI,[4],> 100 µM
same,TGI,[5],> 100 µM
same,TGI,[6],> 100 µM
same,TGI,[7],> 100 µM
same,TGI,[52],> 100 µM
same,TGI,[8],> 100 µM
same,TGI,[9],> 100 µM
same,TGI,[10],> 100 µM
same,TGI,[11],> 100 µM
same,TGI,[13],> 100 µM
same,TGI,[53],> 100 µM
same,TGI,[15],> 100 µM
same,TGI,[16],> 100 µM
same,TGI,[54],> 100 µM
same,TGI,[17],> 100 µM
same,TGI,[55],> 100 µM
same,TGI,[56],> 100 µM
same,TGI,[19],> 100 µM
same,TGI,[20],> 100 µM
same,TGI,[21],> 100 µM
same,TGI,[22],> 100 µM
same,TGI,[23],> 100 µM
same,TGI,[25],> 100 µM
same,TGI,[26],> 100 µM
same,TGI,[27],> 100 µM
same,TGI,[28],> 100 µM
same,TGI,[29],> 100 µM
same,TGI,[30],> 100 µM
same,TGI,[31],> 100 µM
same,TGI,[32],> 100 µM
same,TGI,[33],> 100 µM
same,TGI,[34],> 100 µM
same,TGI,[36],> 100 µM
same,TGI,[37],> 100 µM
same,TGI,[38],> 100 µM
same,TGI,[59],> 100 µM
same,TGI,[57],67.5 µM
same,TGI,[58],> 100 µM
same,TGI,[39],> 100 µM
same,TGI,[40],> 100 µM
same,TGI,[41],> 100 µM
same,TGI,[43],> 100 µM
same,TGI,[44],> 100 µM
same,TGI,[45],> 100 µM
same,TGI,[46],> 100 µM
same,TGI,[47],> 100 µM
same,TGI,[49],> 100 µM
same,TGI,[50],> 100 µM
